This note sets out measurements from ChEMBL document CHEMBL1135703, “Synthesis and biological activity of a novel class of small molecular weight peptidomimetic competitive inhibitors of protein tyrosine phosphatase 1B” (2002).

In experiment [1] the target is T1, Tyrosine-protein phosphatase non-receptor type 1 (Rattus norvegicus) (UniProt P20417).
T1 sequence (whole entry): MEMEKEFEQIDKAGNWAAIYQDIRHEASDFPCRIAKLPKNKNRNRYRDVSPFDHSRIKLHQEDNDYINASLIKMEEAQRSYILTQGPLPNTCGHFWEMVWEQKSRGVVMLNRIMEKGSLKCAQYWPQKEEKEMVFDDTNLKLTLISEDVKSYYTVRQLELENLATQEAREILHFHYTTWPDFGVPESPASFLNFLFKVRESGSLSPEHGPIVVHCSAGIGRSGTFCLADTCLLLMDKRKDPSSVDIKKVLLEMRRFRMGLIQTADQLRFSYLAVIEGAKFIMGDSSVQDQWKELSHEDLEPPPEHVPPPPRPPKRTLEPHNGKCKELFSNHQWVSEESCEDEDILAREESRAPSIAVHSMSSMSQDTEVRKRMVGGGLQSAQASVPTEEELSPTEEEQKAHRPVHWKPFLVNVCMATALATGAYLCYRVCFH
Put plainly: Percent inhibition of Protein-tyrosine phosphatase 1 (PTP) assayed at 100 uM.

Experiment [2] addresses T2, Tyrosine-protein phosphatase non-receptor type 1 (Homo sapiens) (UniProt P18031).
T2 sequence (whole entry): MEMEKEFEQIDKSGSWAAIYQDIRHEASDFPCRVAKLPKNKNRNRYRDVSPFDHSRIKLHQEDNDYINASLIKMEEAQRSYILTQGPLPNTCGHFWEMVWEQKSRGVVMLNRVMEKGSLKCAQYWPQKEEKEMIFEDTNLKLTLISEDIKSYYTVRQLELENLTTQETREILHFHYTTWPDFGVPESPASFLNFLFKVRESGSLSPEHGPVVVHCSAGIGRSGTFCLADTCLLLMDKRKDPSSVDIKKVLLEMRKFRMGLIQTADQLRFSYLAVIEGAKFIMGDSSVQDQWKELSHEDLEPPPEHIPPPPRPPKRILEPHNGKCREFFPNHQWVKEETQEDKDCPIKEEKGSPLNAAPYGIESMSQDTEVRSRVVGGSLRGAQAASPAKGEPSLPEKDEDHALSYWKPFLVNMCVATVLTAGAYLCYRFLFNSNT
The experiment can be described thus: Percent inhibition of Protein Tyrosine Phosphatase 1B (PTP 1B) assayed at 100 uM.

Experiment [3] addresses Receptor-type tyrosine-protein phosphatase F (Homo sapiens) (UniProt P10586). The experiment can be described thus: Percent inhibition of Protein-tyrosine phosphatase Lar assayed at 100 uM.
Experiment [4] has as its target T3, Tyrosine-protein phosphatase non-receptor type 11 (Mus musculus) (UniProt P35235).
T3 sequence (whole entry): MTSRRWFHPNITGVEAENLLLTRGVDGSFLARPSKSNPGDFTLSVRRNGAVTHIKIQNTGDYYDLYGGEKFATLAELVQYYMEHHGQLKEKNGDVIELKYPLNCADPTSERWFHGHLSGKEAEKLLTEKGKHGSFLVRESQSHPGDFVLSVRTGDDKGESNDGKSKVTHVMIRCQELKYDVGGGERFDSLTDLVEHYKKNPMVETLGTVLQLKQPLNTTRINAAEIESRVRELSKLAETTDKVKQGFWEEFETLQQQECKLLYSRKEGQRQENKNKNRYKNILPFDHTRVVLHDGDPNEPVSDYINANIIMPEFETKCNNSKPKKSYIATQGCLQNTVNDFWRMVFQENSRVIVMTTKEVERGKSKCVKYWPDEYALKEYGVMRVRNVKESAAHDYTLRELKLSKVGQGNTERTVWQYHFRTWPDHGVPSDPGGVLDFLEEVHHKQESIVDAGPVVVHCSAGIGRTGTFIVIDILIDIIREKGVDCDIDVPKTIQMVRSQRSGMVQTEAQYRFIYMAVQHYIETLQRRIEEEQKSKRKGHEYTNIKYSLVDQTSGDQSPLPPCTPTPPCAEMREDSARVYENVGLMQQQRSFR
Put plainly: Percent inhibition of Tyrosine phosphatase SHP2 SH2 domain containing PTP involved in insulin uM. Set-up: concentration or dose not given beside the values. The settings on record: concentration not given here.

A short description of experiment [5]: Uptake of 2-deoxyglucose into L-6 myocytes, measurements were taken in absence of insulin (basal), assayed at 100 uM. Type of experiment: functional.
Experiment [6] is described as follows: Uptake of 2-deoxyglucose into L-6 myocytes, measurements were taken in presence of insulin (+ins), assayed at 100 uM. Type of experiment: functional.

Receptor-type tyrosine-protein phosphatase F (Homo sapiens), sequence (P10586 whole entry): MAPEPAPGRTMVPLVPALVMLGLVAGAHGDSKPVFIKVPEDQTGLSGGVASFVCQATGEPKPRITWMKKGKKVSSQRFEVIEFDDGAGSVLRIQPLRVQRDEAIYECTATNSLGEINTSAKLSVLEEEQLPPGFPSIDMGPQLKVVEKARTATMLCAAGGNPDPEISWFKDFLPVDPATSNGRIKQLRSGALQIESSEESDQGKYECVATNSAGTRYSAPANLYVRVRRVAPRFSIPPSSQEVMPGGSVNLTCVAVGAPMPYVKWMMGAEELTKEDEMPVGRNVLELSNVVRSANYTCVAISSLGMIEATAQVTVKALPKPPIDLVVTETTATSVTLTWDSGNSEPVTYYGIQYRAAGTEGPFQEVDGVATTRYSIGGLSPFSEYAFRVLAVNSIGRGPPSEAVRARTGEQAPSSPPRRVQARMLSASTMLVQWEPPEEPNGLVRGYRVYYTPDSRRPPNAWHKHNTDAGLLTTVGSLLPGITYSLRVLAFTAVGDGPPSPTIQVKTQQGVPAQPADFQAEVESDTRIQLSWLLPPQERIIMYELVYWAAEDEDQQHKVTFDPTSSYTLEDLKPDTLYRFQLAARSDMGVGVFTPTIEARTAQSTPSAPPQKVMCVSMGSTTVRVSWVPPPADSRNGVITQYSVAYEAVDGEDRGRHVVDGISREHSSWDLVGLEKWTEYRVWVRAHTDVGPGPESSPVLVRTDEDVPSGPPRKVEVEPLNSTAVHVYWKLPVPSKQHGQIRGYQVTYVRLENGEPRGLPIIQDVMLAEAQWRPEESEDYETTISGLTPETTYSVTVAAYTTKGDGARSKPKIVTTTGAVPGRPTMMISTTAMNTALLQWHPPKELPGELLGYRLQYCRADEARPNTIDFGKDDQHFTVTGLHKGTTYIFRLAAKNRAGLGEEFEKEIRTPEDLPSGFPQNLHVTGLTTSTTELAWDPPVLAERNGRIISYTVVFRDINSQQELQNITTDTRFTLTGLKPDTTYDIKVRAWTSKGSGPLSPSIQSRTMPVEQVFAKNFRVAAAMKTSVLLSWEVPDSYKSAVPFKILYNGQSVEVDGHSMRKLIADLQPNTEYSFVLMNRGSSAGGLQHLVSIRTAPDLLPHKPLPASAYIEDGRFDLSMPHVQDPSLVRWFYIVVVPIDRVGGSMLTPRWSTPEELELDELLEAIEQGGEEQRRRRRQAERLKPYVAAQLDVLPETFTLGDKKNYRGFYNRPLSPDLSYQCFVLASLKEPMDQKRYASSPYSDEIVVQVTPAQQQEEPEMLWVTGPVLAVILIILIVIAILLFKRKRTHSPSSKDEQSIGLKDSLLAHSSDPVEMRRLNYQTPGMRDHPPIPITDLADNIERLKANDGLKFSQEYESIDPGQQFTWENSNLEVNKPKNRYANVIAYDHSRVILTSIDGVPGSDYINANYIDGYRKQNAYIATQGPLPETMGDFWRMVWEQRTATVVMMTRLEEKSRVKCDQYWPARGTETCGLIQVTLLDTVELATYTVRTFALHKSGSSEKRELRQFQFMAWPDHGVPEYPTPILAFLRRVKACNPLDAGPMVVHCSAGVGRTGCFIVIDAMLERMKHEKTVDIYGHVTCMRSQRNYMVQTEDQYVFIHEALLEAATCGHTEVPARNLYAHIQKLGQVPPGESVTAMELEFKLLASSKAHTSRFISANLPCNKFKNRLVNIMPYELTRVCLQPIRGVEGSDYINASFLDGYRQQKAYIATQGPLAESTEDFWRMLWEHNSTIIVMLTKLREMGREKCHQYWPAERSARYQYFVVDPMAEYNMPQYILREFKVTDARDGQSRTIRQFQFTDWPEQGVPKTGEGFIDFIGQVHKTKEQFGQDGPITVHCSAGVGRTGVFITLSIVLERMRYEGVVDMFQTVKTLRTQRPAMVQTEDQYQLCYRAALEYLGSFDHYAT

Take `CCCCCNC(=O)C(Cc1ccc(OC(C(=O)O)C(=O)O)cc1)NC(=O)[C@H](Cc1ccccc1)NC(=O)OC(C)(C)C` (some centres undefined): the inhibition was found to be 88% in experiment [1], 91% in experiment [2], 27% in experiment [3] and 10% in experiment [4].

With `CCCCCNC(=O)C(Cc1ccc(OCC(N)=O)c(C(=O)O)c1)NC(=O)CCC(=O)O` (centres undefined), the inhibition is 16% in experiment [1], 5% in experiment [2], 0% in experiment [3] and 2% in experiment [4].

For `CCCCCNC(=O)C(Cc1ccc(OC(C(=O)O)C(=O)O)cc1)NC(=O)[C@H](Cc1ccccc1)NC(=O)CCC(=O)O` (some centres undefined), the inhibition is 97% in experiment [1], 99% in experiment [2], 23% in experiment [3] and 44% in experiment [4].

Consider `CCCCCNC(=O)[C@H](Cc1ccc(OC(C(=O)O)C(=O)O)cc1)NC(=O)[C@H](Cc1ccc(C(=O)c2ccccc2)cc1)NC(=O)CCC(=O)O`, for which the inhibition in experiment [1] amounted to 98%; in experiment [2], 98%; in experiment [3], 26%; in experiment [4], 71%.

In the case of `CCCCCNC(=O)C(Cc1ccc(OCC(=O)O)c(C(=O)O)c1)NC(=O)[C@H](Cc1ccccc1)NC(=O)CCC(=O)O` (some centres undefined), the “2-deoxyglucose uptake, % of control” value in experiment [5] is 105%; in experiment [6] it was 83%. The inhibition in experiment [2] was 93%; in experiment [3] it was 0%; in experiment [4] it was 10%.

`CCCCCNC(=O)[C@H](Cc1ccc(OCC(=O)O)c(C(=O)O)c1)NC(=O)[C@@H](Cc1ccccc1)NC(=O)OC(C)(C)C`: the “2-deoxyglucose uptake, % of control” value in experiment [5] is listed as 107%; in experiment [6], 89%. In addition, the inhibition in experiment [2] came to 19%; in experiment [3], 0%; in experiment [4], 0%.

As for `CCCCCNC(=O)C(Cc1ccc(OC(C(=O)O)C(=O)O)cc1)NC(=O)[C@H](C)NC(=O)OC(C)(C)C` (some centres undefined), the inhibition worked out at 76% in experiment [1], 83% in experiment [2], 0% in experiment [3] and 3% in experiment [4].

For `O=C(O)CCC(=O)NC(Cc1ccc(OC(C(=O)O)C(=O)O)cc1)C(=O)NCCCc1ccccc1` (centres undefined), the values for the inhibition in experiment [1], in experiment [3] and in experiment [4] were 72%, 6% and 12%, respectively.

For the compound `CCCCCNC(=O)C(Cc1ccc(OC(C(=O)O)C(=O)O)cc1)NC(=O)[C@H](Cc1ccc(OC)cc1)NC(=O)OC(C)(C)C` (some centres undefined), the inhibition in experiment [1] stood at 90%; in experiment [3], 30%; in experiment [4], 9%.

Turning to `CCCCCNC(=O)C(Cc1ccc(OC(C(=O)O)C(=O)O)cc1)NC(=O)[C@H]1C[C@@H]1C(=O)O` (some centres undefined), the inhibition stood at 57% in experiment [1], 6% in experiment [3] and 10% in experiment [4].

As to `CCCCCNC(=O)C(Cc1ccc(OC(C(=O)O)C(=O)O)cc1)NC(=O)CCCC(=O)O` (centres undefined), the inhibition in experiment [1] worked out at 67%; in experiment [3] it was 7%; in experiment [4], 10%.

Take `O=C(O)CCC(=O)NC(Cc1ccc(OC(C(=O)O)C(=O)O)cc1)C(=O)NCCC(c1ccccc1)c1ccccc1` (centres undefined): the inhibition came out at 45% in experiment [1], 11% in experiment [3] and 9% in experiment [4].

As to `CCCCNC(=O)C(Cc1ccc(OC(C(=O)O)C(=O)O)cc1)NC(=O)CCC(=O)O` (centres undefined), the inhibition in experiment [1] was 37%; in experiment [3], 5%; in experiment [4], 1%.

Regarding `CCCCCNC(=O)C(Cc1ccc(OC(C(=O)O)C(=O)O)cc1)NC(=O)[C@H](CCC(=O)O)NC(=O)OC(C)(C)C` (some centres undefined), the inhibition in experiment [1] worked out at 83%; in experiment [3], 11%; in experiment [4] it was 14%.

As to `CCCCCNC(=O)C(Cc1ccc(OC(C(=O)O)C(=O)O)cc1)NC(=O)[C@H](CC(=O)O)NC(=O)OCc1ccccc1` (some centres undefined), the inhibition in experiment [1] was 90%; in experiment [3] it was 6%; in experiment [4] it was 50%.

Consider `CCCCCNC(=O)[C@H](Cc1ccc(OC(C(=O)O)C(=O)O)cc1)NC(=O)[C@@H](Cc1ccc(C(=O)c2ccccc2)cc1)NC(=O)CCC(=O)O`, for which the inhibition worked out at 54% in experiment [1], 6% in experiment [3] and 11% in experiment [4].

Consider `CCCCCNC(=O)C(Cc1ccc(OC(C(=O)O)C(=O)O)cc1)NC(=O)[C@H]1CCCC[C@H]1C(=O)O` (some centres undefined), for which the inhibition in experiment [1] was 62%; in experiment [3], 8%; in experiment [4], 13%.

`O=C(O)CCC(=O)NC(Cc1ccc(OC(C(=O)O)C(=O)O)cc1)C(=O)NCCCN1CCOCC1` (centres undefined): the inhibition in experiment [1] was 35%; in experiment [3], 0%; in experiment [4], 2%.

Turning to `CCCCCCCCCCNC(=O)C(Cc1ccc(OC(C(=O)O)C(=O)O)cc1)NC(=O)CCC(=O)O` (centres undefined), the values for the inhibition in experiment [1], in experiment [3] and in experiment [4] were 51%, 4% and 9%, respectively.

`CCCCCNC(=O)C(Cc1ccc(OC(C(=O)O)C(=O)O)cc1)NC(=O)COCC(=O)O` (centres undefined): the inhibition in experiment [1] is 53%; in experiment [3], 5%; in experiment [4], 8%.

Turning to `O=C(O)CCC(=O)NC(Cc1ccc(OC(C(=O)O)C(=O)O)cc1)C(=O)NCCCn1ccnc1` (centres undefined), the inhibition worked out at 26% in experiment [1], 3% in experiment [3] and 1% in experiment [4].

In the case of `CCCCCNC(=O)C(Cc1ccc(OC(C(=O)O)C(=O)O)cc1)NC(=O)c1ccccc1C(=O)O` (centres undefined), the inhibition in experiment [1] came to 63%; in experiment [3], 10%; in experiment [4], 19%.

As to `CCCCCNC(=O)C(Cc1ccc(OC(C(=O)O)C(=O)O)cc1)NC(=O)[C@H](COc1ccc(Cc2cc(Cl)ccc2Cl)cc1)NC(=O)CCC(=O)O` (some centres undefined), the inhibition came out at 98% in experiment [1], 33% in experiment [3] and 28% in experiment [4].

In the case of `CCCCCNC(=O)C(CCc1ccc(OC(C(=O)O)C(=O)O)cc1)NC(=O)CCC(=O)O` (centres undefined), the inhibition is 18% in experiment [1], 0% in experiment [3] and 10% in experiment [4].

With `CC(C)CC(CO)NC(=O)C(Cc1ccc(OC(C(=O)O)C(=O)O)cc1)NC(=O)CCC(=O)O` (centres undefined), the inhibition in experiment [1] was 57%; in experiment [3], 0%; in experiment [4] it was 10%.

With `CCCCCNC(=O)C(Cc1ccc(OCC(=O)O)c(C(N)=O)c1)NC(=O)CCC(=O)O` (centres undefined), the inhibition in experiment [1] was found to be 11%; in experiment [3], 0%; in experiment [4], 1%.

`CCCCCNC(=O)C(Cc1ccc(OCC(=O)O)c(C(=O)O)c1)NC(=O)CCC(=O)O` (centres undefined): the inhibition in experiment [1] was 93%; in experiment [2], 87%; in experiment [3], 0%; in experiment [4], 5%.

Regarding `CCCCCNC(=O)C(Cc1ccc(OC(C(=O)O)C(=O)O)cc1)NC(=O)[C@H](CC(=O)O)NC(=O)CCC(=O)O` (some centres undefined), the inhibition is 96% in experiment [1], 95% in experiment [2], 7% in experiment [3] and 25% in experiment [4].

Regarding `O=C(O)CCC(=O)NC(Cc1ccc(OC(C(=O)O)C(=O)O)cc1)C(=O)NCCOc1ccccc1` (centres undefined), the inhibition in experiment [1] came to 57%; in experiment [3], 4%; in experiment [4], 34%.

Consider `CCCCCNC(=O)C(Cc1ccc(OC(C(=O)O)C(=O)O)cc1)NC(=O)[C@H](CC(=O)O)NC(=O)OC(C)(C)C` (some centres undefined), for which the inhibition in experiment [1] came out at 90%; in experiment [3], 10%; in experiment [4] it was 12%.

As to `CCCCCNC(=O)C(Cc1ccc(OC(C(=O)O)C(=O)O)cc1)NC(=O)CC1(CC(=O)O)CCCC1` (centres undefined), the inhibition in experiment [1] was 72%; in experiment [3] it was 9%; in experiment [4], 18%.
